Test results from patent US20190352268A1, “CANNABINOID RECEPTOR MEDIATING COMPOUNDS” (The USA, as represented by the Secretary, Department of …, priority 2015, published 2019).
Where two headings read alike, the source gives them in different places.

What was measured:
CB1 = CB1 (Mus musculus, UniProt P47746); experiment: CB1 radioligand displacement assay in mouse brain membranes; format: binding; set-up: radioligand displacement assay in mouse brain membranes; from tissue; host or cells: mouse brain membranes
[1] = test system: CCl4-induced liver fibrosis; experiment: CCl4-induced liver fibrosis model in mice; format: in vivo, mouse
Protocol: CCl4-induced liver fibrosis was generated by intraperitoneal injection of CCL4 (1 ml/kg, diluted 1:10 corn oil), twice weekly for 8 weeks. […] Data represent mean±SEM from 7-8 mice per group.*P<0.05 relative to control. ^#indicates significant treatment effect (P<0.05) relative to CCl4-treated vehicle group.
Fibrosis results from excessive extracellular matrix deposition by myofibroblasts accompanying chronic inflammation and wound healing, and is a key pathogenic process in many organs, including kidneys, lung, and liver.

[2] = Tissue levels (brain and plasma) after administration to mice; details: 1 hour after administration of 10 mg/kg to mice

CB1, sequence (P47746 whole entry): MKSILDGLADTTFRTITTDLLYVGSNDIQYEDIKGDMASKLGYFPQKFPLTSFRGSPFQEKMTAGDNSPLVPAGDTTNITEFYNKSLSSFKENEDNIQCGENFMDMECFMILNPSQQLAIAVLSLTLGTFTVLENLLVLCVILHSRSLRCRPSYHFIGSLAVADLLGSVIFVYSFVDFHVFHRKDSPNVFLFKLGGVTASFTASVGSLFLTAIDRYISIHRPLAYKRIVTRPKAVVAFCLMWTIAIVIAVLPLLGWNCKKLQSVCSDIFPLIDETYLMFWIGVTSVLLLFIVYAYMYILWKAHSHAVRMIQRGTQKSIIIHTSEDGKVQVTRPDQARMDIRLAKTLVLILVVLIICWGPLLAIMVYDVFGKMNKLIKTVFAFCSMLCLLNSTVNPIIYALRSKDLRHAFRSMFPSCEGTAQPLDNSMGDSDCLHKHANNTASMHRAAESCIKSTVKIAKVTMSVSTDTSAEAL

Row | Compound | Ki (CB1; Table 2, read-out: Ki CB1) [nM] | further results
1 | NC(=NC(=NS(=O)(=O)c1ccc(Cl)cc1)N1CC(c2ccccc2)C(c2ccc(Cl)cc2)=N1)c1ccc(F)cc1 (stereo not shown) [Compound 10] | 7.9 | 
2 | CC(N)=NC(=NS(=O)(=O)c1ccc(I)cc1)N1CC(c2ccccc2)C(c2ccc(Cl)cc2)=N1 (stereo not shown) [Compound 29] | 10 | 
3 | NC(=NC(=NS(=O)(=O)c1ccc(Cl)cc1)N1CC(c2ccccc2)C(c2ccc(Cl)cc2)=N1)c1cccc(Br)c1 (stereo not shown) [Compound 14] | 56 | 
4 | NC(=NC(=NS(=O)(=O)c1ccc(Cl)cc1)N1CC(c2ccccc2)C(c2ccc(Cl)cc2)=N1)NC12CC3CC(CC(C3)C1)C2 (stereo not shown) [Compound 64] | > 1000 | 
5 | N/C(=N\C(=N\S(=O)(=O)c1ccc(Cl)cc1)N1CC(c2ccccc2)C(c2ccc(Cl)cc2)=N1)n1cccn1 (stereo not shown) [Compound 63] | 11 | 
6 | CN1CCN(/C(N)=N/C(=N/S(=O)(=O)c2ccc(Cl)cc2)N2CC(c3ccccc3)C(c3ccc(Cl)cc3)=N2)CC1 (stereo not shown) [Compound 54] | 309 | 
7 | N/C(=N\C(=N\S(=O)(=O)c1ccc(Cl)cc1)N1CC(c2ccccc2)C(c2ccc(Cl)cc2)=N1)N1CCCCC1 (stereo not shown) [Compound 53] | 276 | 
8 | CCN(CC)/C(N)=N/C(=N/S(=O)(=O)c1ccc(Cl)cc1)N1CC(c2ccccc2)C(c2ccc(Cl)cc2)=N1 (stereo not shown) [Compound 38] | 49 | 
9 | CON(C)/C(N)=N/C(=N/S(=O)(=O)c1ccc(Cl)cc1)N1CC(c2ccccc2)C(c2ccc(Cl)cc2)=N1 (stereo not shown) [Compound 42] | 23 | 
10 | NC(=NC(=NS(=O)(=O)c1ccc(I)cc1)N1CC(c2ccccc2)C(c2ccc(Cl)cc2)=N1)c1ccc(Cl)cc1 (stereo not shown) [Compound 86] | 11 | 
11 | CC(N)=NC(=NS(=O)(=O)c1ccc2ccccc2c1)N1CC(c2ccccc2)C(c2ccc(Cl)cc2)=N1 (stereo not shown) [Compound 33] | 8 | 
12 | NC(=NC(=NS(=O)(=O)c1ccc(C(F)(F)F)cc1)N1CC(c2ccccc2)C(c2ccc(Cl)cc2)=N1)c1ccc(Cl)cc1 (stereo not shown) [Compound 82] | 16 | 
13 | COCCN(CCOC)/C(N)=N/C(=N/S(=O)(=O)c1ccc(Cl)cc1)N1CC(c2ccccc2)C(c2ccc(Cl)cc2)=N1 (stereo not shown) [Compound 39] | 425 | 
14 | CC(C)(C)C(N)=NC(=NS(=O)(=O)c1ccc(C(F)(F)F)cc1)N1CC(c2ccccc2)C(c2ccc(Cl)cc2)=N1 (stereo not shown) [Compound 81] | 3.4 | 
15 | CC(N)=NC(=NS(=O)(=O)c1ccc(C)cc1)N1CC(c2ccccc2)C(c2ccc(Cl)cc2)=N1 (stereo not shown) [Compound 31] | 87 | 
16 | CC(C)(N/C(N)=N/C(=N/S(=O)(=O)c1ccc(Cl)cc1)N1CC(c2ccccc2)C(c2ccc(Cl)cc2)=N1)c1ccccc1 (stereo not shown) [Compound 66] | 112 | 
17 | NC(=NC(=NS(=O)(=O)c1ccc(C(F)(F)F)cc1)N1CC(c2ccccc2)C(c2ccc(Cl)cc2)=N1)NC(=O)/C=C/c1ccccc1 (stereo not shown) [Compound 101] | 5.5 | 
18 | N/C(=N/C(=N\S(=O)(=O)c1ccc(Cl)cc1)N1CC(c2ccccc2)C(c2ccc(Cl)cc2)=N1)c1ccc(F)cc1 (single isomer, unassigned) [Compound 10E1] | 6.5 | 
19 | COc1ccc(S(=O)(=O)N=C(N=C(C)N)N2CC(c3ccccc3)C(c3ccc(Cl)cc3)=N2)cc1 (stereo not shown) [Compound 32] | 182 | 
20 | N/C(=N\C(=N\S(=O)(=O)c1ccc(Cl)cc1)N1CC(c2ccccc2)C(c2ccc(Cl)cc2)=N1)NC1CCCCC1 (stereo not shown) [Compound 57] | 419 | 
21 | CN(CC(C)(C)C)C(N)=NC(=NS(=O)(=O)c1ccc(Cl)cc1)N1CC(c2ccccc2)C(c2ccc(Cl)cc2)=N1 (stereo not shown) [Compound 67] | 2390 | 
22 | CC(=O)N/C(N)=N/C(=N/S(=O)(=O)c1ccc(Cl)cc1)N1CC(c2ccccc2)C(c2ccc(Cl)cc2)=N1 (stereo not shown) [Compound 65] | 9 | 
23 | COC(CN(C)C(N)=NC(=NS(=O)(=O)c1ccc(Cl)cc1)N1CC(c2ccccc2)C(c2ccc(Cl)cc2)=N1)OC (stereo not shown) [Compound 68] | 443 | 
24 | NC(=NC(=NS(=O)(=O)c1ccc(Cl)cc1)N1CC(c2ccccc2)C(c2ccc(Cl)cc2)=N1)SCCc1ccccc1 (stereo not shown) [Compound 25] | 287 | 
25 | Cc1cc(C)n(C(N)=NC(=NS(=O)(=O)c2ccc(Cl)cc2)N2CC(c3ccccc3)C(c3ccc(Cl)cc3)=N2)n1 (stereo not shown) [Compound 69] | 10 | 
26 | NC(=NC(=NS(=O)(=O)c1ccc(C(F)(F)F)cc1)N1CC(c2ccccc2)C(c2ccc(Cl)cc2)=N1)c1ccc(F)cc1F (stereo not shown) [Compound 80] | 6.6 | 
27 | N/C(=N\C(=N\S(=O)(=O)c1ccc(Cl)cc1)N1CC(c2ccccc2)C(c2ccc(Cl)cc2)=N1)NCc1ccccc1 (stereo not shown) [Compound 50] | 505 | 

Row | Compound | Ki (CB1; Table 2, read-out: Ki CB1) [nM] | further results
28 | N/C(=N\C(=N\S(=O)(=O)c1ccc(Cl)cc1)N1CC(c2ccccc2)C(c2ccc(Cl)cc2)=N1)NC1CCCC1 (stereo not shown) [Compound 56] | 459 | 
29 | NC(=NC(=NS(=O)(=O)c1ccc(Cl)cc1)N1CC(c2ccccc2)C(c2ccc(Cl)cc2)=N1)C12CC3CC(CC(C3)C1)C2 (stereo not shown) [Compound 7] | 15 | 
30 | CC(C)(C)C(N)=NC(=NS(=O)(=O)c1ccc(Cl)cc1)N1C[C@H](c2ccccc2)C(c2ccc(Cl)cc2)=N1 [Compound 3E1] | 36 | 
31 | COc1cccc(C(N)=NC(=NS(=O)(=O)c2ccc(Cl)cc2)N2CC(c3ccccc3)C(c3ccc(Cl)cc3)=N2)c1 (stereo not shown) [Compound 17] | 86 | 
32 | CN(Cc1cccnc1)C(N)=NC(=NS(=O)(=O)c1ccc(Cl)cc1)N1CC(c2ccccc2)C(c2ccc(Cl)cc2)=N1 (stereo not shown) [Compound 48] | 147 | 
33 | COC(CN/C(N)=N/C(=N/S(=O)(=O)c1ccc(Cl)cc1)N1CC(c2ccccc2)C(c2ccc(Cl)cc2)=N1)OC (stereo not shown) [Compound 60] | 443 | 
34 | NC(=NC(=NS(=O)(=O)c1ccc(Cl)cc1)N1CC(c2ccccc2)C(c2ccc(Cl)cc2)=N1)c1ccc([N+](=O)[O-])cc1 (stereo not shown) [Compound 9] | 62 | 
35 | CC(C)(C)OC(=O)N1CCN(/C(N)=N/C(=N/S(=O)(=O)c2ccc(Cl)cc2)N2CC(c3ccccc3)C(c3ccc(Cl)cc3)=N2)CC1 (stereo not shown) [Compound 59] |  | Ki (CB1): 387 nM
36 | N/C(=N\C(=N\S(=O)(=O)c1ccc(Cl)cc1)N1CC(c2ccccc2)C(c2ccc(Cl)cc2)=N1)NCCc1ccccc1 (stereo not shown) [Compound 51] | 931 | 
37 | NC(=NC(=NS(=O)(=O)c1ccc(Cl)cc1)N1CC(c2ccccc2)C(c2ccc(Cl)cc2)=N1)c1ccc(Br)cc1 (stereo not shown) [Compound 20] | 27 | 
38 | CC(C)(C)C(N)=NC(=NS(=O)(=O)c1ccc(Cl)cc1)N1CC(c2ccccc2)C(c2ccc(Cl)cc2)=N1 (stereo not shown) [Compound 3] | 7 | Ki (CB1; Table 1, read-out: Ki CB1): 7 nM
39 | NC(=NC(=NS(=O)(=O)c1ccc(Cl)cc1)N1CC(c2ccccc2)C(c2ccc(Cl)cc2)=N1)NCC12CC3CC(CC(C3)C1)C2 (stereo not shown) [Compound 62] | > 1000 | 
40 | C=CCN(CC=C)/C(N)=N/C(=N/S(=O)(=O)c1ccc(Cl)cc1)N1CC(c2ccccc2)C(c2ccc(Cl)cc2)=N1 (stereo not shown) [Compound 35] | 263 | 
41 | CC(C)N/C(N)=N/C(=N/S(=O)(=O)c1ccc(Cl)cc1)N1CC(c2ccccc2)C(c2ccc(Cl)cc2)=N1 (stereo not shown) [Compound 47] | 516 | 
42 | NC(=NC(=NS(=O)(=O)c1ccc(Cl)cc1)N1CC(c2ccccc2)C(c2ccc(Cl)cc2)=N1)SCCCc1ccccc1 (stereo not shown) [Compound 26] | 190 | 
43 | CC(C)C(N)=NC(=NS(=O)(=O)c1ccc(Cl)cc1)N1CC(c2ccccc2)C(c2ccc(Cl)cc2)=N1 (stereo not shown) [Compound 5] | 29 | 
44 | CC(N)=NC(=NS(=O)(=O)c1ccc(C#N)cc1)N1CC(c2ccccc2)C(c2ccc(Cl)cc2)=N1 (stereo not shown) [Compound 100] | 16 | 
45 | CN(Cc1ccccc1)/C(N)=N/C(=N/S(=O)(=O)c1ccc(Cl)cc1)N1CC(c2ccccc2)C(c2ccc(Cl)cc2)=N1 (stereo not shown) [Compound 49] | 343 | 
46 | N/C(=N\C(=N\S(=O)(=O)c1ccc(Cl)cc1)N1CC(c2ccccc2)C(c2ccc(Cl)cc2)=N1)N1CCOCC1 (stereo not shown) [Compound 52] | 193 | Ki (CB1; Table 1, read-out: Ki CB1): 193 nM
47 | O=S(=O)(N=C(N=C1CCCCN1)N1CC(c2ccccc2)C(c2ccc(Cl)cc2)=N1)c1ccc(Cl)cc1 (stereo not shown) [Compound 6] | 29 | 
48 | CCCCN(CC)/C(N)=N/C(=N/S(=O)(=O)c1ccc(Cl)cc1)N1CC(c2ccccc2)C(c2ccc(Cl)cc2)=N1 (stereo not shown) [Compound 36] | 535 | 
49 | CC(N)=NC(=NS(=O)(=O)c1ccc(OC(F)(F)F)cc1)N1CC(c2ccccc2)C(c2ccc(Cl)cc2)=N1 (stereo not shown) [Compound 97] | 138 | 
50 | NC(=NC(=NS(=O)(=O)c1ccc(I)cc1)N1CC(c2ccccc2)C(c2ccc(Cl)cc2)=N1)c1ccc(F)cc1F (stereo not shown) [Compound 88] | 4.8 | 
51 | CC(=N)N/C(=N\S(=O)(=O)c1ccc(Cl)cc1)N1C[C@H](c2ccccc2)C(c2ccc(Cl)cc2)=N1 [Compound 2E1] |  | liver fibrosis / collagen deposition by Sirius Red and Masson's trichrome staining ([1]; 10 mg/kg/day orally for 4 weeks): more effective than rimonabant; CCl4-induced increase in immunoreactive iNOS ([1]; 10 mg/kg/day orally for 4 weeks, liver): dramatically attenuated; anti-fibrotic efficacy in liver fibrosis (overall) ([1]; versus rimonabant): higher anti-fibrotic efficacy than rimonabant; plasma levels, oral versus i.p. administration [2]: comparable after oral or i.p. administration
52 | CC(=O)N/C(N)=N/C(=N/S(=O)(=O)c1ccc(C(C)(C)C)cc1)N1CC(c2ccccc2)C(c2ccc(Cl)cc2)=N1 (stereo not shown) [Compound 91] | 1.3 | 
53 | CC(C)(C)C(N)=NC(=NS(=O)(=O)c1ccc(I)cc1)N1CC(c2ccccc2)C(c2ccc(Cl)cc2)=N1 (stereo not shown) [Compound 89] | 4.1 | 
